Experimental data from ChEMBL document CHEMBL1201862, “PubChem BioAssay data set” (2004).
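Results reflect a 48-hour exposure of cells in 96-well plates to compound at five concentrations. At the GI50, growth is halved.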 Calls of active or inactive are those of the source. Cut-off read from the data, not from the text of the source: active = GI50 up to about 1.1 µM and inactive = higher.

Assays:
Experiment in all cases: NCI anticancer screen, dose series, 48 h
[1] = system: HCT-116
[2] = system: ACHN
[3] = system: SF-295
[4] = system: SNB-75
[5] = system: A549
[6] = system: SF-268
[7] = system: MOLT-4
[8] = system: EKVX
[9] = system: DU-145
[10] = system: UO-31
[11] = system: HT-29
[12] = system: K562
[13] = system: OVCAR-8
[14] = system: OVCAR-3
[15] = system: UACC-62
[16] = system: OVCAR-5
[17] = system: A498
[18] = system: UACC-257
[19] = system: 786-0
[20] = system: SF-539

Row | SMILES | GI50 [1] | GI50 [2] | GI50 [3] | GI50 [4] | GI50 [5] | GI50 [6] | GI50 [7] | GI50 [8] | GI50 [9] | GI50 [10] | GI50 [11] | GI50 [12] | GI50 [13] | GI50 [14] | GI50 [15] | GI50 [16] | GI50 [17] | GI50 [18] | GI50 [19] | GI50 [20]
1 | CCOC(=O)CNC(=O)C(CCC(=O)N(C)O)NC(=O)CCC(N)C(=O)O (stereo unspecified) | > 100 µM (inactive) | > 100 µM (inactive) | > 100 µM (inactive) | > 100 µM (inactive) | > 100 µM (inactive) | > 100 µM (inactive) | > 100 µM (inactive) | > 100 µM (inactive) | > 100 µM (inactive) | > 100 µM (inactive) | > 100 µM (inactive) | > 100 µM (inactive) | > 100 µM (inactive) | > 100 µM (inactive) | > 100 µM (inactive) | > 100 µM (inactive) | > 100 µM (inactive) | > 100 µM (inactive) | > 100 µM (inactive) | > 100 µM (inactive)
2 | Cc1ccc([N+](=O)[O-])cc1S(=O)(=O)Nc1ccc(C2=NNC(c3cccs3)C2)cc1 (stereo unspecified) | 22.5 µM (inactive) | 20.7 µM (inactive) | 6.67 µM (inactive) | 31.3 µM (inactive) | 22.9 µM (inactive) | 36.8 µM (inactive) | 13.7 µM (inactive) | 18.8 µM (inactive) | 30.3 µM (inactive) | 5.32 µM (inactive) | 29.9 µM (inactive) | 17.4 µM (inactive) | 54.2 µM (inactive) | 12.6 µM (inactive) | 14.5 µM (inactive) | 58.9 µM (inactive) | 20.4 µM (inactive) | 26.9 µM (inactive) | 31.3 µM (inactive) | 48.1 µM (inactive)
3 | NS(=O)(=O)c1ccc(NC(=S)NC=C2C(=O)c3ccccc3C2=O)cc1 | > 100 µM (inactive) | > 100 µM (inactive) | > 100 µM (inactive) | 19.4 µM (inactive) | > 100 µM (inactive) | 36.5 µM (inactive) | 61.9 µM (inactive) | > 100 µM (inactive) | 94 µM (inactive) | 22.6 µM (inactive) |  | 35.8 µM (inactive) |  | 55.8 µM (inactive) | 56.2 µM (inactive) | > 100 µM (inactive) | 71.9 µM (inactive) | > 100 µM (inactive) | > 100 µM (inactive) | 35.5 µM (inactive)
4 | O=c1[nH]c2c(c(=O)[nH]1)SSC2 | 3.14 µM (inactive) | 26.5 µM (inactive) | 18.5 µM (inactive) | 17.1 µM (inactive) | 25.9 µM (inactive) | 3.67 µM (inactive) | 1.3 µM (inactive) | 21.3 µM (inactive) | 13.8 µM (inactive) | 11.8 µM (inactive) | 19.6 µM (inactive) | 0.74 µM (active) | 4.16 µM (inactive) | 19 µM (inactive) | 3.03 µM (inactive) | 16.6 µM (inactive) | 25.7 µM (inactive) | 4.99 µM (inactive) | 4.89 µM (inactive) | 3.14 µM (inactive)
5 | Nc1cc2nc(O)c(O)nc2cc1N | > 100 µM (inactive) | > 100 µM (inactive) | > 100 µM (inactive) | > 100 µM (inactive) | > 100 µM (inactive) | > 100 µM (inactive) | > 100 µM (inactive) | > 100 µM (inactive) | > 100 µM (inactive) | > 100 µM (inactive) | > 100 µM (inactive) | > 100 µM (inactive) | > 100 µM (inactive) | > 100 µM (inactive) | > 100 µM (inactive) | > 100 µM (inactive) | > 100 µM (inactive) | > 100 µM (inactive) | > 100 µM (inactive) | > 100 µM (inactive)
6 | CSC1NC(c2ccccc2)=C(C#N)C(=O)N1C1OCC(OC(C)=O)C(OC(C)=O)C1OC(C)=O (stereo unspecified) | 47.9 µM (inactive) | > 100 µM (inactive) | > 100 µM (inactive) | > 100 µM (inactive) | > 100 µM (inactive) | > 100 µM (inactive) | > 100 µM (inactive) | > 100 µM (inactive) | > 100 µM (inactive) | > 100 µM (inactive) | > 100 µM (inactive) | > 100 µM (inactive) | > 100 µM (inactive) | > 100 µM (inactive) | > 100 µM (inactive) | > 100 µM (inactive) | > 100 µM (inactive) | > 100 µM (inactive) | > 100 µM (inactive) | > 100 µM (inactive)
7 | O=C(O)CCC(NC(=O)c1ccc(Nc2nc3cc(C(F)(F)F)ccc3nc2C(=O)O)cc1)C(=O)O (stereo unspecified) | > 100 µM (inactive) | > 100 µM (inactive) | > 100 µM (inactive) | > 100 µM (inactive) | > 100 µM (inactive) | > 100 µM (inactive) | > 100 µM (inactive) | > 100 µM (inactive) | > 100 µM (inactive) | > 100 µM (inactive) | > 100 µM (inactive) | > 100 µM (inactive) | > 100 µM (inactive) | > 100 µM (inactive) | > 100 µM (inactive) | > 100 µM (inactive) | > 100 µM (inactive) | > 100 µM (inactive) | > 100 µM (inactive) | > 100 µM (inactive)
8 | COc1ccc(C2=Nc3c(nc(OC)[nH]c3=O)NC(c3ccccc3)C2)cc1 (stereo unspecified) | 28.4 µM (inactive) | 27.5 µM (inactive) | 50 µM (inactive) | 12.5 µM (inactive) | 34.4 µM (inactive) |  | 38.6 µM (inactive) | 33.9 µM (inactive) | 42.3 µM (inactive) | 46.2 µM (inactive) | 28.4 µM (inactive) | 25.2 µM (inactive) | 21.4 µM (inactive) | 33.8 µM (inactive) | 42.8 µM (inactive) | 46.6 µM (inactive) | 32.6 µM (inactive) | 49.9 µM (inactive) | 27.6 µM (inactive) | 28.1 µM (inactive)
9 | CCOC(=O)c1nc2cc(C(F)(F)F)ccc2nc1Oc1ccc(F)cc1 | 4.49 µM (inactive) | > 100 µM (inactive) | > 100 µM (inactive) | > 100 µM (inactive) | > 100 µM (inactive) | > 100 µM (inactive) | > 100 µM (inactive) | > 100 µM (inactive) | > 100 µM (inactive) | 61.5 µM (inactive) |  | > 100 µM (inactive) | > 100 µM (inactive) | > 100 µM (inactive) | > 100 µM (inactive) | > 100 µM (inactive) | > 100 µM (inactive) | > 100 µM (inactive) | > 100 µM (inactive) | > 100 µM (inactive)
10 | COc1nc(N)nc2nc[nH]c12 | 463 µM (inactive) | 328 µM (inactive) | > 500 µM (inactive) | 208 µM (inactive) | > 500 µM (inactive) | 435 µM (inactive) | 474 µM (inactive) | > 387 µM (inactive) | 478 µM (inactive) | 239 µM (inactive) | 495 µM (inactive) | > 500 µM (inactive) | > 500 µM (inactive) | 497 µM (inactive) | 160 µM (inactive) | 345 µM (inactive) | 228 µM (inactive) | 486 µM (inactive) | 489 µM (inactive) | 495 µM (inactive)
11 | C=CCNC1=C2C[C@@H](C)C[C@H](OC)[C@H](O)[C@@H](C)/C=C(\C)[C@H](OC(N)=O)[C@@H](OC)/C=C\C=C(/C)C(=O)NC(=CC1=O)C2=O [TANESPIMYCIN] | 0.0311 µM (active) | 0.127 µM (active) | 0.0745 µM (active) | 0.0173 µM (active) | 0.0369 µM (active) | 0.593 µM (active) | 0.527 µM (active) | 4.01 µM (inactive) | 0.0569 µM (active) | 0.428 µM (active) | 0.0113 µM (active) | 0.0405 µM (active) | 0.0607 µM (active) | 0.115 µM (active) | 0.0326 µM (active) | 0.177 µM (active) | 5.07 µM (inactive) | 0.0532 µM (active) | 0.0638 µM (active) | 0.0428 µM (active)
